Patent publication US5607937A, “Piperazides of substituted phenylalanine derivatives as thrombin inhibitors” (priority 1993, dated 1997)

What was measured:
[1] = plasma concentration in rats after intravenous administration; assay type: in vivo; conditions: rat, i.v. 1 mg/kg
Description: A physiological NaCl solution of the substance to be tested was submitted to high pressure liquid chromatography (HPLC) in order to determine its characteristic substance-specific retention time with the chosen test conditions.
The substance to be tested was diluted in vitro in rat plasma. This solution was also submitted to HPLC to see whether the characteristic peak of the substance once again appeared at the substance-specific retention time.
Blood samples were taken at time intervals of 15 minutes, from which plasma samples were prepared by centrifugation; those samples were also submitted to HPLC to see whether the characteristic peak of the substance appeared again at the substance-specific retention time.
After administration, blood samples were taken from the test animals at time intervals from 2 to maximally 360 minutes and the blood level of the compounds to be tested was determined by HPLC.

[2] = plasma concentration in rats after oral administration; assay type: in vivo; conditions: rat, oral 50 mg/kg
[3] = plasma concentration in rats after rectal administration; assay type: in vivo; conditions: plasma, rat, rectal 100 mg/kg
thrombin = thrombin (Bos taurus, UniProt P00735); assay: biochemical
[4] = system: coagulation in human plasma; assay: thrombin time (TT) in human plasma
tPA = tPA (Homo sapiens, UniProt P00750); assay: inhibition of tPA, dissociation constant Ki
[5] = system: coagulation in human plasma; assay: prothrombin time (PT, Quick value) in human plasma
factor XIIa = biological target: T1, factor XIIa (Homo sapiens, UniProt P00748); assay: inhibition of factor XIIa, dissociation constant Ki
T1 sequence (P00748 373-615 limits assumed): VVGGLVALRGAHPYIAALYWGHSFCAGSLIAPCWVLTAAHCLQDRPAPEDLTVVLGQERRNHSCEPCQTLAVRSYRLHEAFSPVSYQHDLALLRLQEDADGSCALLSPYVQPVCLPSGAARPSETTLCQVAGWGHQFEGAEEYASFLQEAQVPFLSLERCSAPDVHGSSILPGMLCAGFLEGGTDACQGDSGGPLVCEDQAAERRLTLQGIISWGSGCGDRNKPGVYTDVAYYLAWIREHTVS

plasma kallikrein = plasma kallikrein (Homo sapiens, UniProt P03952); assay: inhibition of plasma kallikrein, dissociation constant Ki
glandular kallikrein = glandular kallikrein (Sus scrofa, UniProt P00752); assay: inhibition of glandular kallikrein, dissociation constant Ki
[6] = system: coagulation in human plasma; assay: activated partial thromboplastin time (aPTT) in human plasma

Sequence of tPA (P00750 36-562): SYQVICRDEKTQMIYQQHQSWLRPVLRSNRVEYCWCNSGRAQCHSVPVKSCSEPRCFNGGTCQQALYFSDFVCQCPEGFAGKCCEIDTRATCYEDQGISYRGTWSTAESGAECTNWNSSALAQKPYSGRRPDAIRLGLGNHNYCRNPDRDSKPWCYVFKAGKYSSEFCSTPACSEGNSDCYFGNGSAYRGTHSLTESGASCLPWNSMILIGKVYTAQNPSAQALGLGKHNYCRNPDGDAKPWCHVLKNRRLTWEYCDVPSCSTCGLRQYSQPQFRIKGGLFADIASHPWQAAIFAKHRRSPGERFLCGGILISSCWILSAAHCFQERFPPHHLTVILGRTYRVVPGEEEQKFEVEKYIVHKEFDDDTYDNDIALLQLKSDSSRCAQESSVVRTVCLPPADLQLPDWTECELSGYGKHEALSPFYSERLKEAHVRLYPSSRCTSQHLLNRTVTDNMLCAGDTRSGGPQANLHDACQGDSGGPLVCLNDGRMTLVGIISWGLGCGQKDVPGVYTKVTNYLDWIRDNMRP
Sequence of plasma kallikrein (P03952 391-638 limits assumed, species assumed): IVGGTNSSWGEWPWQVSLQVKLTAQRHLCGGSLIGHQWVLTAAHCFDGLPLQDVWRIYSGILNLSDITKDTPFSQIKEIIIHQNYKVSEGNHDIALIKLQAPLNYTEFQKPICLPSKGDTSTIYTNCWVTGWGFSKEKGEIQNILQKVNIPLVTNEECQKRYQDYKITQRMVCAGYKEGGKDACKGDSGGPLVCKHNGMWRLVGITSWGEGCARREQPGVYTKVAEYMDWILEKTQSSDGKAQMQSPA
Sequence of plasma kallikrein (P03952 20-390 partner limits assumed, species assumed): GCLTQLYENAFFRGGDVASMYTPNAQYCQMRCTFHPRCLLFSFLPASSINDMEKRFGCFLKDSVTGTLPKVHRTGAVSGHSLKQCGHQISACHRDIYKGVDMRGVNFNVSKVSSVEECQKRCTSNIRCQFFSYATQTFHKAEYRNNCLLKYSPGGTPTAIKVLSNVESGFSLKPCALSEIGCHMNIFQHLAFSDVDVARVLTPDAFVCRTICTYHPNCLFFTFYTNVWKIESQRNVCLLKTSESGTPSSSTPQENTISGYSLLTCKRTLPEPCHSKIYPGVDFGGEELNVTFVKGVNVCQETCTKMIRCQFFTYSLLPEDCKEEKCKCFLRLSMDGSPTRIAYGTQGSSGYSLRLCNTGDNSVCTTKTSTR
Sequence of glandular kallikrein (P00752 8-246): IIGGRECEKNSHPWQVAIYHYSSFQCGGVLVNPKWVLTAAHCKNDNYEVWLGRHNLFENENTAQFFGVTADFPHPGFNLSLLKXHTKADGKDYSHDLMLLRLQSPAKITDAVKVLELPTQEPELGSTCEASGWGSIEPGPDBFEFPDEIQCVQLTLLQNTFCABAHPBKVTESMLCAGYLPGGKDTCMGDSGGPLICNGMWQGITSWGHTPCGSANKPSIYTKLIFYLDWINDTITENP

In the case of `CCOC(=O)N1CCN(C(=O)C(Cc2cccc(C(=N)N)c2)NS(=O)(=O)c2ccc3ccccc3c2)CC1` (racemic) [X, N-α-(2-naphthylsulfonyl)-(D,L)-3-amidinophenylalanine-4-ethoxycarbonyl piperazide, reference compound], the concentration at 5 min ([1]; plasma, iv, 5 min) is reported as 812 ng/mL, the concentration at 0.25 h ([1]; plasma, iv, 15 min) is reported as 169 ng/mL and the concentration at 0.5 h ([1]; plasma, iv, 30 min) is reported as 40 ng/mL. The concentration at 1 h ([1]; plasma, iv, 60 min) was 8 ng/mL, the Concentration in plasma ([1]; 120 min) was 0 ng/mL and the Concentration in plasma ([1]; 180 min) was 0 ng/mL. It also gave a concentration at 0.5 h ([2]; plasma, 30 min) of 33 ng/mL, a concentration at 1 h ([2]; plasma, 60 min) of 10 ng/mL and a Concentration in plasma ([2]; 120 min) of 0 ng/mL. The Concentration in plasma ([2]; 180 min) was 0 ng/mL, the Concentration in plasma ([2]; 240 min) was 0 ng/mL and the Concentration in plasma ([2]; 300 min) was 0 ng/mL. It also gave a concentration at 0.5 h ([3]; 30 min) of 3260 ng/mL, a concentration at 1 h ([3]; 60 min) of 2370 ng/mL and a concentration at 2 h ([3]; 120 min) of 1800 ng/mL. The concentration at 3 h ([3]; 180 min) was 898 ng/mL, the concentration at 4 h ([3]; 240 min) was 626 ng/mL and the concentration at 5 h ([3]; 300 min) was 592 ng/mL. For the same compound, the concentration at 6 h ([3]; 360 min) was 448 ng/mL, the Ki (thrombin) was 0.67 µM and the “Concentr. to double the Thrombin time” value [4] was 4.1 µmol/L. The Ki (tPA) was 370 µM, the “Concentr. to double the Prothrombin time” value [5] was 45 µmol/L and the Ki (factor XIIa) was 210 µM. For the same compound, the Ki (plasma kallikrein) was 30 µM, the Ki (glandular kallikrein) was over 1000 µM and the “Concentr. to double the aPTT” value [6] was 20 µmol/L.
